The values below come from the supplement of paper PMC10307832.

The structures appear in SMILES notation.

In one assay the test system is NCI-H358. Put plainly: relative viability (nuclei count vs DMSO), 5 days (fraction); higher = more cells survive. The settings on record: first compound 20 µM. Put shortly: (§1)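 Medians of duplicate plates are given as relative viability. That measure is the nuclei count in treated wells divided by the count in vehicle wells. Counts were taken on 4× images of lung cancer cell lines in 1536-well plates, 5 days after pin-tool dosing the day after seeding with one drug alone or a fixed anchor-drug dose plus five library-drug doses (not always all listed) in √10 steps.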
`COCC1(CO)C(=O)C2CCN1CC2` (stereo unspecified) [PRIMA-1MET] + Cc1cc(Nc2cc(N3CCN(C)CC3)nc(Sc3ccc(NC(=O)C4CC4)cc3)n2)n[nH]1 [Tozasertib] (partner 0.1 µM): the relative viability was determined as 0.0866.
The same measure, in the same setting: the same measure for `COCC1(CO)C(=O)C2CCN1CC2` (stereo unspecified) [PRIMA-1MET] + COc1cccc2cc(-c3nc([C@H]4CC[C@H](C(=O)O)CC4)n4ncnc(N)c34)[nH]c12 [OSI-027] (partner 0.5 µM): 0.365.

Another assay concerns NCI-H596. Described as above. The following applies: first compound 0.2 µM. The procedure, abridged:
as §1
As for `COCC1(CO)C(=O)C2CCN1CC2` (stereo unspecified) [PRIMA-1MET] + CS(=O)(=O)CCNCc1ccc(-c2ccc3ncnc(Nc4ccc(OCc5cccc(F)c5)c(Cl)c4)c3c2)o1 [Lapatinib] (partner 2 µM), the relative viability is 1.14.
`COCC1(CO)C(=O)C2CCN1CC2` (stereo unspecified) [PRIMA-1MET] + O=C(CCCCCCC(=O)Nc1ccccc1)NO [Vorinostat] (partner 1 µM) displayed a relative viability of 0.694.
With `COCC1(CO)C(=O)C2CCN1CC2` (stereo unspecified) [PRIMA-1MET] + Cc1cc(Nc2cc(N3CCN(C)CC3)nc(Sc3ccc(NC(=O)C4CC4)cc3)n2)n[nH]1 [Tozasertib] (partner 0.1 µM), the relative viability came to 0.96.
Compound `COCC1(CO)C(=O)C2CCN1CC2` (stereo unspecified) [PRIMA-1MET] + COc1cccc2cc(-c3nc([C@H]4CC[C@H](C(=O)O)CC4)n4ncnc(N)c34)[nH]c12 [OSI-027] (partner 0.5 µM) displayed a relative viability of 0.747.

The same assay, now with this note: first compound 0.6325 µM.
`COCC1(CO)C(=O)C2CCN1CC2` (stereo unspecified) [PRIMA-1MET] + CS(=O)(=O)CCNCc1ccc(-c2ccc3ncnc(Nc4ccc(OCc5cccc(F)c5)c(Cl)c4)c3c2)o1 [Lapatinib] (partner 2 µM) returned a relative viability of 1.01.
Same read-out and setting: the same measure for `COCC1(CO)C(=O)C2CCN1CC2` (stereo unspecified) [PRIMA-1MET] + O=C(CCCCCCC(=O)Nc1ccccc1)NO [Vorinostat] (partner 1 µM): 0.589; for `COCC1(CO)C(=O)C2CCN1CC2` (stereo unspecified) [PRIMA-1MET] + Cc1cc(Nc2cc(N3CCN(C)CC3)nc(Sc3ccc(NC(=O)C4CC4)cc3)n2)n[nH]1 [Tozasertib] (partner 0.1 µM): 0.803.
As to `COCC1(CO)C(=O)C2CCN1CC2` (stereo unspecified) [PRIMA-1MET] + COc1cccc2cc(-c3nc([C@H]4CC[C@H](C(=O)O)CC4)n4ncnc(N)c34)[nH]c12 [OSI-027] (partner 0.5 µM), the relative viability came to 0.635.

The assay is the same for the next values; noted with them: first compound 2 µM.
On to `COCC1(CO)C(=O)C2CCN1CC2` (stereo unspecified) [PRIMA-1MET] + CS(=O)(=O)CCNCc1ccc(-c2ccc3ncnc(Nc4ccc(OCc5cccc(F)c5)c(Cl)c4)c3c2)o1 [Lapatinib] (partner 2 µM), for which the relative viability was found to be 0.77.
Same read-out and setting: the same measure for `COCC1(CO)C(=O)C2CCN1CC2` (stereo unspecified) [PRIMA-1MET] + O=C(CCCCCCC(=O)Nc1ccccc1)NO [Vorinostat] (partner 1 µM): 0.421.
Still for that read-out and setting: the same measure for `COCC1(CO)C(=O)C2CCN1CC2` (stereo unspecified) [PRIMA-1MET] + Cc1cc(Nc2cc(N3CCN(C)CC3)nc(Sc3ccc(NC(=O)C4CC4)cc3)n2)n[nH]1 [Tozasertib] (partner 0.1 µM): 0.869; for `COCC1(CO)C(=O)C2CCN1CC2` (stereo unspecified) [PRIMA-1MET] + COc1cccc2cc(-c3nc([C@H]4CC[C@H](C(=O)O)CC4)n4ncnc(N)c34)[nH]c12 [OSI-027] (partner 0.5 µM): 0.457.

Still in this assay, the particulars now being: first compound 6.325 µM.
Compound `COCC1(CO)C(=O)C2CCN1CC2` (stereo unspecified) [PRIMA-1MET] + CS(=O)(=O)CCNCc1ccc(-c2ccc3ncnc(Nc4ccc(OCc5cccc(F)c5)c(Cl)c4)c3c2)o1 [Lapatinib] (partner 2 µM) came in with a relative viability of 1.22.
Same read-out and setting: the same measure for `COCC1(CO)C(=O)C2CCN1CC2` (stereo unspecified) [PRIMA-1MET] + O=C(CCCCCCC(=O)Nc1ccccc1)NO [Vorinostat] (partner 1 µM): 0.732.
The compound `COCC1(CO)C(=O)C2CCN1CC2` (stereo unspecified) [PRIMA-1MET] + Cc1cc(Nc2cc(N3CCN(C)CC3)nc(Sc3ccc(NC(=O)C4CC4)cc3)n2)n[nH]1 [Tozasertib] (partner 0.1 µM) returned a relative viability of 1.02.
The compound `COCC1(CO)C(=O)C2CCN1CC2` (stereo unspecified) [PRIMA-1MET] + COc1cccc2cc(-c3nc([C@H]4CC[C@H](C(=O)O)CC4)n4ncnc(N)c34)[nH]c12 [OSI-027] (partner 0.5 µM) gave a relative viability of 0.893.

Still in this assay, the particulars now being: first compound 20 µM.
In the case of `COCC1(CO)C(=O)C2CCN1CC2` (stereo unspecified) [PRIMA-1MET] + CS(=O)(=O)CCNCc1ccc(-c2ccc3ncnc(Nc4ccc(OCc5cccc(F)c5)c(Cl)c4)c3c2)o1 [Lapatinib] (partner 2 µM), the relative viability was 1.02.
Regarding `COCC1(CO)C(=O)C2CCN1CC2` (stereo unspecified) [PRIMA-1MET] + O=C(CCCCCCC(=O)Nc1ccccc1)NO [Vorinostat] (partner 1 µM), the relative viability was 0.147.
In turn, `COCC1(CO)C(=O)C2CCN1CC2` (stereo unspecified) [PRIMA-1MET] + Cc1cc(Nc2cc(N3CCN(C)CC3)nc(Sc3ccc(NC(=O)C4CC4)cc3)n2)n[nH]1 [Tozasertib] (partner 0.1 µM) came in with a relative viability of 0.102.
Still for that read-out and setting: the same measure for `COCC1(CO)C(=O)C2CCN1CC2` (stereo unspecified) [PRIMA-1MET] + COc1cccc2cc(-c3nc([C@H]4CC[C@H](C(=O)O)CC4)n4ncnc(N)c34)[nH]c12 [OSI-027] (partner 0.5 µM): 0.645.

The next assay has as its system NCI-H650. The assay is described as above. The settings on record: first compound 0.2 µM. The procedure, abridged: as §1
`COCC1(CO)C(=O)C2CCN1CC2` (stereo unspecified) [PRIMA-1MET] + CS(=O)(=O)CCNCc1ccc(-c2ccc3ncnc(Nc4ccc(OCc5cccc(F)c5)c(Cl)c4)c3c2)o1 [Lapatinib] (partner 2 µM) displayed a relative viability of 1.24.
The same measure, in the same setting: the same measure for `COCC1(CO)C(=O)C2CCN1CC2` (stereo unspecified) [PRIMA-1MET] + O=C(CCCCCCC(=O)Nc1ccccc1)NO [Vorinostat] (partner 1 µM): 0.54; for `COCC1(CO)C(=O)C2CCN1CC2` (stereo unspecified) [PRIMA-1MET] + Cc1cc(Nc2cc(N3CCN(C)CC3)nc(Sc3ccc(NC(=O)C4CC4)cc3)n2)n[nH]1 [Tozasertib] (partner 0.1 µM): 0.91; for `COCC1(CO)C(=O)C2CCN1CC2` (stereo unspecified) [PRIMA-1MET] + COc1cccc2cc(-c3nc([C@H]4CC[C@H](C(=O)O)CC4)n4ncnc(N)c34)[nH]c12 [OSI-027] (partner 0.5 µM): 0.705.
